Test results as given in patent publication US20260115250A1, “METHODS OF TREATING AGE-RELATED MACULAR DEGENERATION” (Character Biosciences, Inc., priority 2022, published 2026).
Peptide text beside a SMILES is read from it.

Key:
ARPE-19 cells = assay: ARPE-19 cholesterol efflux; format: cell-based, human; conditions: ARPE-19, 20 μM peptide, 4 hours
Procedure: Fully confluent 96-well plates of ARPE-19 cells were treated for 1 hour in serum-free DMEM containing 10 mM methyl-β-cyclodextrin, 100 μM cholesterol, and 25 μM BODIPY cholesterol. Cells were then washed and incubated overnight in serum-free DMEM containing 1 μM GW3965, 2 μg/mL ACAT inhibitor, and 0.2% BSA (LXR Agonist treated), or serum free DMEM containing 2 μg/mL ACAT inhibitor, and 0.2% BSA (Control). Cells were washed and incubated with 20 μM peptides diluted in serum-free Fluorobrite DMEM for 4 hours at 37° C. Media was transferred to a new 96-well plate and fresh serum-free Fluorobrite DMEM was placed on the cells. Media and cellular fluorescence were read on a Promega GloMax at 475 nm excitation, 500-550 emission. Fluorescence values were background corrected from no treatment conditions and percent efflux was calculated by the following equation: % efflux=(Media Fluorescence values)/(Media+Cell Fluorescence values). Data are presented as mean+SD over two runs per peptide.

[1] = key assays (summary statement on homologous variants)
HMC3 cells = assay: HMC3 cholesterol efflux; format: cell-based, human; conditions: HMC3, 20 μM peptide, 4 hours
Procedure: FIGS. 27A-27B and FIG. 28 illustrate HMC3 cholesterol efflux. Fully confluent 96-well plates of HMC3 cells were treated for 1 hour in serum-free EMEM containing 10 mM methyl-β-cyclodextrin, 100 μM cholesterol, and 25 μM BODIPY cholesterol. Cells were then washed and incubated overnight in serum free EMEM containing 1 μM LXR agonist GW3965, 2 μg/mL ACAT inhibitor, and 0.2% BSA (LXR Agonist treated), or serum-free EMEM containing 2 μg/mL ACAT inhibitor, and 0.2% BSA (Control). Cells were washed and incubated with 20 μM peptides diluted in serum-free Fluorobrite DMEM for 4 hours at 37° C. Media was transferred to a new 96-well plate and fresh serum-free Fluorobrite DMEM was placed on the cells. Media and cellular fluorescence were read on a Promega GloMax at 475 nm excitation, 500-550 emission. Fluorescence values were background corrected from no treatment conditions and percent efflux was calculated by the following equation: % efflux=(Media Fluorescence values)/(Media+Cell Fluorescence values). Data are presented as mean+SD over two runs per peptide.
FIGS. 30A-30J show HMC3 cholesterol efflux titration curves for the indicated peptides. Fully confluent 96-well plates of HMC3 cells were treated for 1 hour in serum-free EMEM containing 10 mM methyl-β-cyclodextrin, 100 μM cholesterol, and 25 μM BODIPY cholesterol. Cells were then washed and incubated overnight in serum free EMEM containing 1 μM GW3965, 2 μg/mL ACAT inhibitor, and 0.2% BSA (LXR Agonist treated), or serum free EMEM containing 2 μg/mL ACAT inhibitor, and 0.2% BSA (Control). Cells were washed and incubated with 0-100 μM peptides serially diluted in serum-free Fluorobrite DMEM for 4 hours at 37° C. Media was transferred to a new 96-well plate and fresh serum-free Fluorobrite DMEM was placed on the cells. Media and cellular fluorescence were read on a Promega GloMax at 475 nm excitation, 500-550 emission. Fluorescence values were background corrected from no treatment conditions and percent efflux was calculated by the following equation: % efflux=(Media Fluorescence values)/(Media+Cell Fluorescence values). Data are presented as mean+SD over two runs per peptide.

ABCA1 = molecular target: T1, ABCA1 (Homo sapiens, UniProt O95477); assay: membrane ABCA1 stability testing in ARPE-19 cells treated with mCRP; format: cell-based; conditions: ARPE-19, mCRP, 20 μM peptide, 24 hours
T1 construct: endogenous in cells; host or cells: ARPE-19
T1 sequence (O95477 whole entry): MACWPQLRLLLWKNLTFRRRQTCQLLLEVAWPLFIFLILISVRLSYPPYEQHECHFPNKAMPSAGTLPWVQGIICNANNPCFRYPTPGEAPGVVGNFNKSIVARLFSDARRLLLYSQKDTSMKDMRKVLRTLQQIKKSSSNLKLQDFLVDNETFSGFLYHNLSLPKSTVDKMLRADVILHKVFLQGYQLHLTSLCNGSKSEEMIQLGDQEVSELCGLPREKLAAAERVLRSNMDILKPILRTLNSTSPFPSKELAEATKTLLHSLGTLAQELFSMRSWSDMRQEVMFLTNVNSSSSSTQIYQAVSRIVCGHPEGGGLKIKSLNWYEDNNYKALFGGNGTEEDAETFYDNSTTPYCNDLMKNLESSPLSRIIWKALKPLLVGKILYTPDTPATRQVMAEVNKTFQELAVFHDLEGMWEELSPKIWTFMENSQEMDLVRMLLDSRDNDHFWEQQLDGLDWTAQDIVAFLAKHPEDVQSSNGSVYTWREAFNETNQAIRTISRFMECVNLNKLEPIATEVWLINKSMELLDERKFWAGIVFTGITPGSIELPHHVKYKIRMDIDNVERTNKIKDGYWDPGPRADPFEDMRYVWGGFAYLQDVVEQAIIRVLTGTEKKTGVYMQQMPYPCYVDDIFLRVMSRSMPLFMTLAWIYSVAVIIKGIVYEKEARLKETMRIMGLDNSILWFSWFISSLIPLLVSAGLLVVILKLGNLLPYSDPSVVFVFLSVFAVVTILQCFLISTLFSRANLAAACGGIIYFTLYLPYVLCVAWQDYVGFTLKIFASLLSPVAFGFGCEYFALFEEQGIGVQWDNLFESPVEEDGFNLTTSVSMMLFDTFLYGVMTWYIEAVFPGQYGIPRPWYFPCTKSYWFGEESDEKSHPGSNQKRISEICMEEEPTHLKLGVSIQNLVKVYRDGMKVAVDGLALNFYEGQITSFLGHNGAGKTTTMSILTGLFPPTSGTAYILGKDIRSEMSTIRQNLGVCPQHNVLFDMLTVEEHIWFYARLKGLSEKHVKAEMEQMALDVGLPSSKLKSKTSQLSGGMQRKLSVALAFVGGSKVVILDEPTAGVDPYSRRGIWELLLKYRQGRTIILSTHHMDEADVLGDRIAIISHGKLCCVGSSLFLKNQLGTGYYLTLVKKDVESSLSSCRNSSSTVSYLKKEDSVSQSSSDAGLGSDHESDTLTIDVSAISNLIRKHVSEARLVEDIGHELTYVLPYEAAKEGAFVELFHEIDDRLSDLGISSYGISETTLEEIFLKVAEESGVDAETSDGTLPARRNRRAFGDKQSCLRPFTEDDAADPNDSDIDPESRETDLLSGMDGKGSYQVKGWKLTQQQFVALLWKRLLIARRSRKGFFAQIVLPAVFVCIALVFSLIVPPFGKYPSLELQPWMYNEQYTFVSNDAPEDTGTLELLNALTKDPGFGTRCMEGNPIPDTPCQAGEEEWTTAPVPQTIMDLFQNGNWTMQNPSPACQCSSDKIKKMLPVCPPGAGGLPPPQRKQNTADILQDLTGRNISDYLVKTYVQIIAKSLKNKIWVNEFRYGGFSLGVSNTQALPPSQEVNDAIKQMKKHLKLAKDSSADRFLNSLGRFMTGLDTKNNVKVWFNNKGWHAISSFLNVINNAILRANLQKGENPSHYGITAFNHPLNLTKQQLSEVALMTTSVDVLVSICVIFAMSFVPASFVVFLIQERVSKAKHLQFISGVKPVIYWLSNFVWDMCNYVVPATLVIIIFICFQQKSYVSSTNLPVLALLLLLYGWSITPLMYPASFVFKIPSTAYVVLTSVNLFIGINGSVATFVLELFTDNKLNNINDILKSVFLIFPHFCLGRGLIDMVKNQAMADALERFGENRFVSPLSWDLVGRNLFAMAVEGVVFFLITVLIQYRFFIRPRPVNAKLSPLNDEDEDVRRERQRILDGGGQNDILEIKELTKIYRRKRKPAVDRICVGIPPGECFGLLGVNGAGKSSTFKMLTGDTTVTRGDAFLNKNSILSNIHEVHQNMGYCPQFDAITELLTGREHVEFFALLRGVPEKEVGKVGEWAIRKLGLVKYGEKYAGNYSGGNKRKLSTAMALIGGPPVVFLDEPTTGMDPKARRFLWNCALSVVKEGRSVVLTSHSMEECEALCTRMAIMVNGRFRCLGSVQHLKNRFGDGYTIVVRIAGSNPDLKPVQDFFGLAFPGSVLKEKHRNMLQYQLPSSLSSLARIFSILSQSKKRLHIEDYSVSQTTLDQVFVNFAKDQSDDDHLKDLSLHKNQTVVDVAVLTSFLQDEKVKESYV
Procedure: ARPE-19 cells were seeded at 100,000 cells per well on 12-well plates and were allowed to grow to confluence. To prepare monomeric CRP (mCRP), recombinant CRP was prepared in a PBS solution containing 8 M Urea and 10 mM EDTA and incubated at 37° C. for 2 hours prior to desalting with a Zeba spin column (7K MW cutoff). mCRP was prepared to a 2× solution of 20 μg/mL. A 2× solution of 40 μM peptides was prepared in serum-free DMEM and serially diluted 1:2 over 4 concentrations. mCRP and peptides were added 1:1 to cells for 24 hours at 37° C. before isolating membrane protein and measuring membrane ABCA1 levels by western blot. Blots were quantified in ImageJ. Signals were further normalized to the LXR agonist treated group to determine percent (%) ABCA1 remaining. Treatment with LXR agonist increased membrane ABCA1 levels in this assay, but following treatment with mCRP, membrane ABCA1 levels were decreased.
FIGS. 35 and 36 show membrane ABCA1 stability testing using ARPE-19 cells. ARPE-19 cells were seeded at 100,000 cells per well on 12-well plates and were allowed to grow to confluence. To prepare monomeric CRP (mCRP), recombinant CRP was prepared in a PBS solution containing 8 M Urea and 10 mM EDTA and incubated at 37° C. for 2 hours prior to desalting with a Zeba spin column (7K MW cutoff). mCRP was prepared to a 2× solution of 20 μg/mL. A 2× solution of 40 μM peptides was prepared in serum-free DMEM. CRP and peptides were added 1:1 to cells for 24 hours at 37° C. before isolating membrane protein and measuring membrane ABCA1 levels by western blot. Blots were quantified in ImageJ. In FIG. 35, Signals were further normalized to the T-087 treated group to determine percent (%) ABCA1 levels compared to peptide T-087 treated cells. In FIG. 36, Signals were further normalized to the peptide T-101 treated group to determine percent (%) ABCA1 levels compared to peptide T-101 treated cells.

LDLR = LDLR (Homo sapiens, UniProt P01130); assay: LDLR binding (SPR), high surfactant preparation; conditions: high surfactant preparation (HBS-P+), 1:1 binding model; read-out: binding KD to LDLR
LDLR, sequence (P01130 22-860): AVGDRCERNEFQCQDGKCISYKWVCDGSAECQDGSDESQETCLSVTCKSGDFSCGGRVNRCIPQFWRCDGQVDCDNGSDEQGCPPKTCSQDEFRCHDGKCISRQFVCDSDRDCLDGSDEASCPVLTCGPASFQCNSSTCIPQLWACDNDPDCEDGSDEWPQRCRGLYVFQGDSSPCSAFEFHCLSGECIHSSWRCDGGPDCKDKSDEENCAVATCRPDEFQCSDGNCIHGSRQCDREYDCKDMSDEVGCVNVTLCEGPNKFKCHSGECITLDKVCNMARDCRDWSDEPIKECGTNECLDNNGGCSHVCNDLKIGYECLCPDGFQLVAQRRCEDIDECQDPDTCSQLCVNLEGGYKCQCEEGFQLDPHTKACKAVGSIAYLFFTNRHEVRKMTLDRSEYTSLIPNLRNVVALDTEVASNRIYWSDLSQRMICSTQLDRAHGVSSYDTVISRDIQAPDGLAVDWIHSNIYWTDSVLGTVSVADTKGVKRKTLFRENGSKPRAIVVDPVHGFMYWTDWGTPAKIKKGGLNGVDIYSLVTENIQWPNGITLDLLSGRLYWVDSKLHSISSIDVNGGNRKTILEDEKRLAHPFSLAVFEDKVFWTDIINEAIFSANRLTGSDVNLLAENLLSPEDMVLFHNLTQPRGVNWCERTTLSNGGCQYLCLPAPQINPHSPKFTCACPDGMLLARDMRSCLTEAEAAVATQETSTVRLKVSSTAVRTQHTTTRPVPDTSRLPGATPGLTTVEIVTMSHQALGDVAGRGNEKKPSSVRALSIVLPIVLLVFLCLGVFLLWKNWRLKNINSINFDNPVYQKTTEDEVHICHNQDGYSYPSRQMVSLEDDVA
Procedure: The table shown in FIG. 23 illustrates LDLR binding data (SPR), using a high surfactant preparation. Recombinant LDLR was diluted in 10 mM acetate buffer pH 4.5 and amine coupled to a CM5 chip at 1000 RU. Peptides were diluted to 5 μM in running buffer (HBS-P+, 1 mM CaCl2) and serially diluted 1:3 for 5 total concentrations. Peptides were exposed to immobilized LDLR at a rate of […] for 120 seconds. Between cycles, the chip surface was regenerated with 3 injections of 50 mM NaOH/100 mM EDTA. Multi-Cycle Kinetics was performed on a Biacore Insight Evaluation Software and binding kinetics were analyzed with a 1:1 binding model.

Row | Compound | cholesterol efflux following LXR agonist treatment (ARPE-19 cells) | membrane ABCA1 levels compared to peptide T-087 treated cells (ABCA1) | other results
1 | T-164: variant of peptide T-087 (DAWERFRALFAELADYFR) | increased cholesterol efflux | – | –
2 | T-152: variant of peptide T-087 (AAWERFRALFKELADYFR) | increased cholesterol efflux | – | activity in key assays of polypeptides homologous to T-087 [1]: sustained or improved activity
3 | T-122: variant of peptide T-101 (RAGADALESALKELKRFIREWT) | – | – | cholesterol efflux in the presence of LXR agonist (HMC3 cells): greater cholesterol efflux; activity in key assays of polypeptides of the SEQ ID NO. 101 family [1]: sustained or improved activity
4 | T-136: variant of peptide T-101 (RSGADALESALKELKAFIREWT) | – | – | cholesterol efflux in the presence of LXR agonist (HMC3 cells): greater cholesterol efflux; activity in key assays of polypeptides of the SEQ ID NO. 101 family [1]: sustained or improved activity
5 | T-129: variant of peptide T-101 (RSGADALEAALKELKRFIREWT) | – | – | cholesterol efflux in the presence of LXR agonist (HMC3 cells): greater cholesterol efflux; activity in key assays of polypeptides of the SEQ ID NO. 101 family [1]: sustained or improved activity
6 | T-174: variant of peptide T-087 (DAWAAARALFKELADYFR) | increased cholesterol efflux | – | –
7 | T-175: variant of peptide T-087 (DAWERFAAAFKELADYFR) | increased cholesterol efflux | – | –
8 | T-153: variant of peptide T-087 (DPWERFRALFKELADYFR) | increased cholesterol efflux | – | –
9 | T-159: variant of peptide T-087 (DAWERFAALFKELADYFR) | increased cholesterol efflux | reduction of membrane ABCA1 levels | –
10 | T-162: variant of peptide T-087 (DAWERFRAAFKELADYFR) | increased cholesterol efflux | reduction of membrane ABCA1 levels | –
11 | T-139: variant of peptide T-101 (RSGADALESALKELKRFIAEWT) | – | – | cholesterol efflux in the presence of LXR agonist (HMC3 cells): greater cholesterol efflux; activity in key assays of polypeptides of the SEQ ID NO. 101 family [1]: sustained or improved activity
12 | T-166: variant of peptide T-087 (DAWERFRALFKEAADYFR) | increased cholesterol efflux | reduction of membrane ABCA1 levels | –
13 | T-155: variant of peptide T-087 (DAAERFRALFKELADYFR) | increased cholesterol efflux | reduction of membrane ABCA1 levels | –
14 | T-168: variant of peptide T-087 (DAWERFRALFKELGDYFR) | increased cholesterol efflux | – | –
15 | T-156: variant of peptide T-087 (DAWARFRALFKELADYFR) | increased cholesterol efflux | reduction of membrane ABCA1 levels | –
16 | T-176: variant of peptide T-087 (DAWERFRALAAALADYFR) | increased cholesterol efflux | – | –
17 | T-154: variant of peptide T-087 (DGWERFRALFKELADYFR) | increased cholesterol efflux | – | –
18 | T-171: variant of peptide T-087 (DAWERFRALFKELADYAR) | increased cholesterol efflux | – | –
19 | T-167: variant of peptide T-087 (DAWERFRALFKELPDYFR) | increased cholesterol efflux | reduction of membrane ABCA1 levels | –
20 | T-178: variant of peptide T-087 (DAWERFRALFKELADAAA) | increased cholesterol efflux | – | –
21 | T-157: variant of peptide T-087 (DAWEAFRALFKELADYFR) | increased cholesterol efflux | reduction of membrane ABCA1 levels | –
22 | T-123: variant of peptide T-101 (RSAADALESALKELKRFIREWT) | – | – | cholesterol efflux in the presence of LXR agonist (HMC3 cells): greater cholesterol efflux; activity in key assays of polypeptides of the SEQ ID NO. 101 family [1]: sustained or improved activity
23 | T-170: variant of peptide T-087 (DAWERFRALFKELADAFR) | increased cholesterol efflux | reduction of membrane ABCA1 levels | –
24 | T-158: variant of peptide T-087 (DAWERARALFKELADYFR) | increased cholesterol efflux | reduction of membrane ABCA1 levels | –
25 | CSCC[C@H](NC(=O)[C@H](CC(C)C)NC(=O)[C@H](CC(=O)O)NC(=O)[C@H](CCCCN)NC(=O)CNC(=O)[C@H](Cc1ccc(O)cc1)NC(=O)[C@H](CC(=O)O)NC(=O)[C@@H](NC(=O)[C@@H](NC(=O)[C@@H](NC(=O)[C@H](CCC(N)=O)NC(=O)[C@H](Cc1ccccc1)NC(=O)[C@H](Cc1ccc(O)cc1)NC(=O)[C@H](CCC(N)=O)NC(=O)[C@H](CO)NC(=O)[C@@H](NC(=O)[C@H](CC(C)C)NC(=O)[C@H](CO)NC(=O)[C@H](CCCNC(=N)N)NC(=O)[C@H](C)NC(=O)[C@H](CC(C)C)NC(=O)[C@H](CCCNC(=N)N)NC(=O)[C@H](CCCCN)NC(=O)[C@H](CCCNC(=N)N)NC(=O)[C@H](CC(C)C)NC(=O)[C@H](CCCCN)NC(=O)[C@H](CCCNC(=N)N)NC(=O)[C@H](CC(C)C)NC(=O)[C@H](Cc1c[nH]cn1)NC(=O)[C@H](CCCNC(=N)N)NC(=O)[C@H](C)NC(=O)[C@@H](N)CC(C)C)C(C)C)[C@@H](C)O)C(C)C)[C@@H](C)O)C(=O)O [T-066] (H-LARHLRKLRKRLARSLVSQYFQTVTDYGKDLM-OH) | – | – | Kd (LDLR): < 10 µM
